# Assay results from patent publication US20210024499A1, “OXIDIZED BIS(3-INDOLYL)METHANES AND USES THEREOF” (Sanford Burnam Prebys Medical Discovery Institute, priority 2018, published 2021).
# Several values for one entry are separate records, joined by “and”; a condition that tells them apart may be missing. Equal values may be shown once.
# How the values were obtained:
# MDA-MB-231 cancer cells = test: Cell viability (MTT) assay, MDA-MB-231; type: cell-based; details: Homo sapiens; inhibiting the growth of MDA-MB-231 cancer cells, cell viability assay (Table 6)
# Protocol: Cell viability was analyzed by using a colorimetric 3-(4,5-dimethylthiazol-[…]2-yl)-2,5-diphenyletetrazolium Bromide (MTT) assay that determines mitochondrial dehydrogenase activities in the living cells with a colorimetric method. Cells treated with test compounds were incubated with MTT and their effect on the viability of the cells was assayed by the ability of treated cells to reduce the yellow tetrazolium dye MTT to its insoluble formazan, which has a purple color. […]
# MDA-MB-231 cells [1] = test: Caspase 3 cleavage assay (Western blotting); type: cell-based; details: 6 hours, Western blotting (FIG. 2)
# Bcl-2−/−MEFs = test: PARP cleavage, Bcl-2-/- MEFs; type: cell-based, mouse; details: 0.5 μM
# Excerpt: The apoptotic effect of Compound 1 was also examined in mouse embryonic fibroblast (MEF) and MEF lacking Bcl-2 (Bcl-2^−/−MEF). […] Apoptotic cells were counted in 200 cells.
# Nur77-LBD = target: T1, Nur77-LBD (Homo sapiens, UniProt P22736); test: Surface plasmon resonance (SPR) binding to Nur77-LBD; details: Nur77-LBD protein, 25° C.
# T1 construct: Protein spectra of purified Nur77-LBD at temperature 50° C. and above changed substantially; His (N); made in house
# T1 sequence (P22736 360-595 limits assumed): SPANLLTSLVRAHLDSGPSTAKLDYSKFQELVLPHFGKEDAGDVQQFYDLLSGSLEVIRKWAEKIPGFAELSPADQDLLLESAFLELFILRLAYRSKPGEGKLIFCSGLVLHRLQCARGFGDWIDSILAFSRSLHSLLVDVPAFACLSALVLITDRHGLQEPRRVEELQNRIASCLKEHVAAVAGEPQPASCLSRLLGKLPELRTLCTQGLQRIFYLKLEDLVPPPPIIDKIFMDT
# Protocol: The binding kinetics between Nur77-LBD and test compounds was analyzed at 25° C. on a BlAcore T200 machine with CMS chips (GE Healthcare). PBSP was used for all measurements. For SPR measurements, Nur77-LBD proteins were purified. A blank channel was used as negative control. About 10,000 response units of Nur77-LBD were immobilized on the chips. When the data collection was finished in each cycle, the sensor surface was regenerated with Glycine-HCl 2.5. A serial of concentrations ranging from 0.15 to 5.0 μM were designed for the experiment. Sensograms were fit globally with BIAcore T200 analysis using 1:1 Langumuir binding mode.
# MDA-MB-231 cells [2] = test: Flow cytometry-based Annexin V/PI apoptosis assay, MDA-MB-231; type: cell-based; details: 1 μM, 6 hours
# Nur77 [3] = test: Cellular fractionation and immunostaining: mitochondrial targeting of Nur77; type: cell-based
# Protocol: (§1) For cellular fractionation, cells were lysed in cold buffer A (10 mM HEPES-KOH (pH 7.9), 1.5 mM MgCl2, 10 mM KCl, 0.5 mM dithiothreitol) with a cocktail of proteinase inhibitors on ice for 10 min as described. Cytoplasmic fraction was collected by centrifuging at 6000 rpm for 30 seconds. Pellets containing nuclei were resuspended in cold high-salt buffer C (20 mM HEPES-KOH (pH 7.9), 25% glycerol, 420 mM NaCl, 1.5 mM MgCl2, 0.2 mM EDTA, 0.5 mM dithiothreitol) with a cocktail of proteinase inhibitors on ice for 30 minutes.
# Nur77 [4] = target: T2, Nur77 (Homo sapiens, UniProt P22736); test: as above; type: cell-based
# T2 construct: expressed in transfected cells
# T2 sequence (P22736 whole entry): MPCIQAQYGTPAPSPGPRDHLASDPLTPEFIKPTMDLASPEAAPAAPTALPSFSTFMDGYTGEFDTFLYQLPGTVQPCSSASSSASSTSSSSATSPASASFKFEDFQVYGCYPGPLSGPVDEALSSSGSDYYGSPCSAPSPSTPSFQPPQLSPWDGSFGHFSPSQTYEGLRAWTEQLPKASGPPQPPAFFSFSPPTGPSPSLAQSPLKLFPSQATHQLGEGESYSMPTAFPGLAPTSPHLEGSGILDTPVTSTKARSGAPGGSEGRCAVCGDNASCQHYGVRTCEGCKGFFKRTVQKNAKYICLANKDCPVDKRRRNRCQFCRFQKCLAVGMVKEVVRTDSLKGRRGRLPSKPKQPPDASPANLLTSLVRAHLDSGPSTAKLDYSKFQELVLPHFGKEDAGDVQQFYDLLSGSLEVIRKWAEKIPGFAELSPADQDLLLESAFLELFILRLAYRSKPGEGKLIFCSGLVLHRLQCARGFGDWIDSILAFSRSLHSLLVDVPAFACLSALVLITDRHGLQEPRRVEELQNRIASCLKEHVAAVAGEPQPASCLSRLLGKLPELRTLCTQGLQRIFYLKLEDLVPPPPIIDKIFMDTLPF
# Protocol: as §1
# HeLa cells = test: DAPI staining for apoptosis, HeLa; type: cell-based
# Protocol: In HeLa cells, about 60% apoptotic cells were detected when cells were treated with Compound 1 compared to less than 5% when cells were not treated with Compound 1. Apoptotic cells were counted in 200 cells.
# We next examined whether Nur77 mitochondrial targeting induced by the combination of Compound 1/B12030 was apoptotic. HeLa cells were treated with either Compound 1 or BI2030 alone or in combination and apoptosis was examined by DAPI staining. About 7.2% or 9.1% of cells were apoptotic when treated with 0.5 μM Compound 1 or 1 μM BI2030, respectively, for 2 hours. […] Apoptotic cells were counted in 200 cells.
# Nur77−/−MEFs = test: PARP cleavage, Nur77-/- MEFs; type: cell-based, mouse; details: 0.5 μM
# Protocol: The apoptotic effect of Compound 1 was examined in mouse embryonic fibroblast (MEF) and MEF lacking Nur77 (Nur77^−/−MEF). […] Induction of PARP cleavage (as performed in Example A-7) in MEFs by Compound 1 at 0.5 μM was also attenuated in Nur77^−/−MEFs.
# parental HeLa cells = test: Annexin V/PI staining, parental HeLa; type: cell-based; details: methanesulfonate
# Nur77 [5] = target: T2, Nur77; test: Immunostaining of Nur77 localization, HCT116; type: cell-based; details: HCT116 cells, 0.5 μM, 2 hours
# Protocol: Cells were fixed in 3.7% paraformaldehyde. For mitochondrial staining, cells were incubated with anti-Hsp60 goat immunoglobulin G (IgG) (Santa Cruz Biotechnology, Santa Cruz, Calif.), followed by anti-goat IgG conjugated with Cy3. The nuclei were visualized by DAPI staining. Fluorescent images were collected and analyzed by using a fluorescence microscopy or MRC-1024 MP laser-scanning confocal microscope (Bio-Rad, Hercules, Calif.).
# To confirm the effect of Compound 1 on Nur77 cytoplasmic localization, HEK293T cells were transfected with GFP-Nur77 and subsequently treated with 0.5 μM Compound 1.
# HCT116 cells = test: DAPI staining for apoptosis, HCT116; type: cell-based; details: 0.5 μM, 6 hours, counted in 200 cells
# Protocol: In HCT116 cells, about 80% apoptotic cells were detected when cells were treated with Compound 1 compared to less than 5% when cells were not treated with Compound 1. Apoptotic cells were counted in 200 cells.
# Nur77−/− HeLa cells = test: Mitochondrial membrane potential (JC1), Nur77 knockout HeLa; type: cell-based; details: 1 μM, 6 h
# Protocol: Loss of mitochondrial membrane potential (Avm) represents one of the hallmarks of apoptosis. A JC-1 probe was employed to measure mitochondrial depolarization in cancer cells. MDA-MB-231 breast cancer cells were treated with different concentration of test compounds for 6 hours. JC-1 staining solution (5 μg/ml) was added at 37° C. for 20 min. After washing with PBS twice, mitochondrial membrane potentials were monitored by determining the relative amounts of dual emission from a multiple fluorescence reader. The fluorescence in cells was quantitatively analyzed by flow cytometry. Mitochondrial depolarization is depicted by an increase in the green/red fluorescence intensity ratio. ROS were monitored with the oxiadtion-senstive fluorescent probe 2′7′-dichlorodihydroflurescenin diacetate (DCF-DA).
# Furthermore, Nur77^−/−HeLa cells were more resistant than the parental HeLa cells to Compound 1 in its induction of the mitochondrial membrane potential loss measured by JC1 staining and in the release of mitochondrial ROS (as performed in Example A-12).
smiles,measurement,setting,value
"FC(F)(F)c1ccc([C+](c2c[nH]c3ccccc23)c2c[nH]c3ccccc23)cc1 [Compound 1, Bis(1H-indol-3-yl)(4-(trifluoromethyl)phenyl)methylium methanesulfonate]",IC50,MDA-MB-231 cancer cells,< 500 nM
same,caspase 3 cleavage,MDA-MB-231 cells [1],dose dependent induction of caspase 3 cleavage
same,PARP cleavage,Bcl-2−/−MEFs,no apparent effect
same,Kd,Nur77-LBD,100 nM
same,apoptotic cells (Annexin V/PI),MDA-MB-231 cells [2],about 31.63%
same,transfected GFP-Nur77-LBD colocalization with Hsp60,Nur77 [3]; confocal microscopy and cellular fractionation,colocalized extensively with the mitochondria-specific Hsp60 protein
same,Myc-Nur77-LBD colocalization with mitochondria,Nur77 [3]; immunostaining,colocalized extensively with the mitochondria
same,transfected GFP-Nur77 in heavy membrane (HM) fraction,Nur77 [4]; cellular fractionation,accumulated in the mitochondria-enriched heavy membrane (HM) fraction
same,Myc-Nur77 in heavy membrane (HM) fraction,"Nur77 [4]; mitochondria fractionation, 1μM",accumulated in the mitochondria-enriched heavy membrane (HM) fraction
same,"apoptotic cells (DAPI staining), single agent","HeLa cells; 0.5 μM Compound 1 or 1 μM BI2030, 2 hours",About 7.2%
same,apoptotic cells (DAPI staining),"HeLa cells; 0.5 μM, 6 hours, counted in 200 cells",about 60%
same,"apoptotic cells (DAPI staining), co-treated with Compound 1 and BI2030","HeLa cells; co-treatment with BI2030, 2 hours",about 35.5%
same,induction of PARP cleavage relative to MEFs,Nur77−/−MEFs,attenuated
same,apoptotic effect (Annexin V/PI staining),parental HeLa cells,35.55% and 24.59%
same,Nur77 subcellular localization (immunostaining),Nur77 [5],predominantly cytoplasmic
same,apoptotic cells (DAPI staining),HCT116 cells,about 80%
same,JC1 green to red ratio,Nur77−/− HeLa cells,no significant change
